{
  "source": "patent US4902799A",
  "about": "“Bicyclic alkoxy- and alkylthio-substituted aminoalcohols” (Maggioni-Winthrop S.p.A., priority 1985, dated 1990)",
  "key": {"toxic adrenaline doses": {"tested_on": "toxic adrenaline doses", "test": "animal or person", "assay_type": "in vivo, mouse (male mice CrI:CD 1(CR) BR)", "details": "Mus musculus, po, 24 h, read-out: PD50 (50% protective dose)"}, "platelet aggregation": {"tested_on": "platelet aggregation", "test": "Collagen-induced platelet aggregation ex vivo", "assay_type": "in vivo, rat", "details": "0.15 mM/kg oral, blood 1 hr after treatment, collagen 2-4 mcg/ml"}, "Normolipemic rats": {"tested_on": "Normolipemic rats", "test": "Hypolipemic activity in normolipemic rats", "assay_type": "in vivo, rat (Sprague Dawley Nos male rats)"}, "male mice [1]": {"tested_on": "male mice", "test": "Anti-hypoxic activity (gasping time after decapitation)", "assay_type": "in vivo", "details": "Mus musculus, po, read-out: Gasping time, % diff. from control"}, "male mice [2]": {"tested_on": "male mice", "details": "mouse, in vivo, po"}},
  "data": [
    {"smiles": "COc1ccc2cc(C(O)C(C)N3CCN(c4ccccc4)CC3)ccc2c1", "note": "(stereo not shown) [MG 38088, 2-(4-Phenyl-1-piperazinyl)-1-(6-methoxy-2-naphthyl)-propanol]", "values": [
      {"measurement": "ED50", "setting": "toxic adrenaline doses", "result": 13.5, "unit": "mg/kg"},
      {"measurement": "% Inhibition, Aggregation rate", "setting": "platelet aggregation", "result": 75.1, "unit": "%"},
      {"measurement": "% Inhibition, Maximum aggregation", "setting": "platelet aggregation", "result": 68.6, "unit": "%"},
      {"measurement": "CHOL, % different from control", "setting": "Normolipemic rats; 0.185 mM/kg/p.o. × 4 days", "result": -35.1, "unit": "%"},
      {"measurement": "CHOL-HDL, % different from control", "setting": "Normolipemic rats; 0.185 mM/kg/p.o. × 4 days", "result": -9.1, "unit": "%"},
      {"measurement": "Liver Weight, % different from control", "setting": "Normolipemic rats; 0.185 mM/kg/p.o. × 4 days", "result": 0, "unit": "%"},
      {"measurement": "TG, % different from control", "setting": "Normolipemic rats; 0.185 mM/kg/p.o. × 4 days", "result": -70.5, "unit": "%"},
      {"measurement": "CHOL, % different from control", "setting": "Normolipemic rats; 0.37 mM/kg/p.o. × 4 days", "result": -41.3, "unit": "%"},
      {"measurement": "CHOL-HDL, % different from control", "setting": "Normolipemic rats; 0.37 mM/kg/p.o. × 4 days", "result": "+5.4%"},
      {"measurement": "Liver Weight, % different from control", "setting": "Normolipemic rats; 0.37 mM/kg/p.o. × 4 days", "result": "+3.4%"},
      {"measurement": "TG, % different from control", "setting": "Normolipemic rats; 0.37 mM/kg/p.o. × 4 days", "result": -68.5, "unit": "%"},
      {"measurement": "change in vivo at 100 mg/kg", "setting": "male mice [1]", "result": 46.8, "unit": "%"},
      {"measurement": "LD50", "setting": "male mice [2]", "result": "higher than 1000 mg/kg"}
    ]}
  ]
}
